Assays:
connexin 43 (Cx43) = assay: immunoprecipitation and immunoblot of phosphorylated connexin 43; assay type: cell-based; conditions: cultured H9c2 cardiomyocytes
Method: H9c2 cells were seeded in 24-multi well dishes in a density of 7,900 cells/cm^2 (˜15,000 cells/well) and grown for 3 days in MEM suplemented with 10% foetal calf serum (FCS) and 1000 units penicillin/1000 μg streptomycin (pen/strep) in an atmosphere of 5% CO2 and 100% humidity at 37° C.
The labelled cells were incubated in Triton X-100 lysis buffer (˜5*10^7 cells/ml) for 1 hr at 4° C. The lysate is centrifuged 30 min at 20,000*g for 30 min. The supernatant was precleared by adding 10 ul Sepharose per 200 μl supernatant. The precleared supernatant were then added 0.5–1 μg phospho-tyrosine or phospho-serine antibodies (Sigma) and incubated for 1.5 hr at 4° C. in an orbital shaker. The antibody-complex was then captured by incubation with 50 μl of a 1:1 slurry of protein G Sepharose for 1.5 hr. Finally the complex were extensively washed with 0.1% (w/v) Triton X-100, 50 mM Tris, pH 7.4, 300 mM NaCl and 5 mM EDTA.
The complexes were loaded onto a 12% SDS gel and blotted onto a PVDF membrane. The membrane is blocked with 0.1% Tween 20, 50 mM Tris, pH 7.4, 300 mM NaCl, 5% dry milk (TBST) for minimum 2 h. The membrane was subsequently incubated with connexin 43 specific antibodies (Zymed) for 1.5 h at RT and developed with ECL+ (Amersham).

infarcted mice = assay: bone marrow cell transplantation after myocardial infarction (design of Orlic et al); assay type: in vivo; conditions: repeated administration during the proliferation process
Source text: Myocardial infarction leads to loss of tissue and impairment of cardiac performance. The remaining myocytes are unable to reconstitute the necrotic tissue, and the post-infarcted heart deteriorates with time. Injury to a target organ is sensed by distant stem cells, which migrate to the site of damage and undergo alternate stem cell differentiation; these events promote structural and functional repair. This high degree of stem cell plasticity prompted Orlic et al (Nature 410, 701–705 (2001)) to test whether dead myocardium could be restored by transplanting bone marrow cells in infarcted mice. They sorted lineage-negative (Lin−) bone marrow cells from transgenic mice expressing enhanced green fluorescent protein by fluorescence-activated cell sorting on the basis of c-kit expression. Shortly after coronary ligation, Lin− c-kitPOS cells were injected in the contracting wall bordering the infarct. […] The developing tissue comprised proliferating myocytes and vascular structures. Their studies indicate that locally delivered bone marrow cells can generate de novo myocardium, ameliorating the outcome of coronary artery disease. […]

Ac-Gly-Asn-Tyr-NH2 [Compound 2]
tyrosine phosphorylation of connexin 43 (connexin 43 (Cx43)): phosphorylation of Cx43 tyrosine | connexin 43 expression (infarcted mice): increase in connexin 43 expression

— patent US7153822B2, “Compositions and methods for modulating connexin hemichannels” (Wyeth, priority 2002, dated 2006)
